Results reported in patent US20250154193A1, “STEROID COMPOUND, AND PREPARATION METHOD THEREFOR AND APPLICATION THEREOF” (CHOLESGEN (SHANGHAI) CO., LTD., priority 2022, published 2025).

Test system: Ldlr−/− mice
Experiment: AMLN diet-induced fatty liver model: body weight, serum and liver metabolic parameters
Assay type: in vivo
Settings: 30 mg/kg/day intragastrically, 8 weeks
From the text: Animals: Adult male C57BL/6J mice were purchased from Shanghai SLAC, and low-density lipoprotein receptor knockout mice (Ldlr^−/− mice, T001464) were purchased from Jiangsu GemPharmatech Co., Ltd. Mice were housed in an environment free of pathogens, maintained in a 12-hour light/dark cycle, and had free access to water and feed. The vehicle for oral gavage was 0.5% Tween-80, 0.5% methylcellulose, and 0.9% sodium chloride. AMLN feed (AMLN, Dyets) contains 40% (kcal %) fat (80% of which is trans fat), 22% (mass %) fructose, and 2% (mass %) cholesterol.
After drug treatment, mice were fasted for 4 hours before being euthanized, and blood and liver samples were collected. Blood was coagulated and centrifuged at 1,500 g for 10 minutes at 4° C. to obtain the supernatant (i.e., serum). Lipids from liver were extracted using the chloroform/methanol method. The samples were first homogenized and crushed using a Precelly 24 homogenizer, and centrifuged at 16,000 g for 10 minutes at 4° C. The organic phase was transferred to a new tube, dried with nitrogen, and dissolved in ethanol. Total cholesterol and triglyceride levels in blood and liver were measured by cholesterol and triglyceride kits (Shanghai Kehua Bio-Engineering Co., Ltd.), respectively. ALT (LE-M0477, Lai Er Bio-Tech) and AST (LE-M0568, Lai Er Bio-Tech) levels in serum were measured according to the corresponding manufacturer's manuals, using an analytical system from Sysmex Shanghai Ltd.
Male C57BL/6J mice and male Ldlr^−/− mice (TOO1464, Jiangsu GemPharmatech Co., Ltd.) at 8 weeks of age were purchased, grouped, fed with different diets, and treated with different drugs. The mice were randomly divided into 4 groups with 8 to 9 mice in each group: One group consisted of C57BL/6J wild-type mice, which was the chow diet (CD) vehicle control group. The other three groups consisted of Ldlr^−/− knockout mice, including chow diet (CD) vehicle control group, AMLN diet (containing […], 22% fructose, and 2% cholesterol) vehicle control group, and AMLN diet combined with 25-hydroxylanosterol administration group (25-hydroxylano sterol was administered at a concentration of 30 mg/kg/day). The mice in four groups were intragastrically administered once a day, during which the changes in food intake and body weight of the mice in different treatment groups were counted. After 8 weeks, blood and liver samples were collected from the mice to analyze blood lipids, liver lipids, and liver damage phenotypes.
In FIGS. 1 and 2, P values were calculated using the statistical analysis of two-way ANOVA (Dunnett's multiple comparisons test); * indicates P<0.05; ns indicates no statistical difference. In FIGS. 3 to 8, data are represented as mean±standard deviation. P values were calculated using one-way ANOVA; * indicates P<0.05; ** indicates P<0.01; *** indicates P<0.001.

C[C@H](CCCC(C)(C)O)[C@H]1CC[C@@]2(C)C3=C(CC[C@]12C)[C@@]1(C)CC[C@H](O)C(C)(C)[C@@H]1CC3 [compound 68, (1R,3aR,5aR,7S,9aS,11aR)-1-[(2R)-6-hydroxy-6-methylheptan-2-yl]-3a,6,6,9a,11a-pentamethyl-2,3,3a,4,5,5a,6,7,8,9,9a,10,11,11a-tetradecahydro-1H-cyclopenta[1,2-a]phenanthren-7-ol]
alanine aminotransferase (ALT) in serum: significantly reduced
aspartate aminotransferase (AST) in serum: significantly reduced
total liver cholesterol levels: significantly reduced
total liver triglyceride levels: significantly reduced
AMLN diet-induced weight gain (vs AMLN diet vehicle control): significantly lower
total cholesterol levels in serum (vs control group): significantly reduced
total triglyceride levels in serum (vs control group): significantly reduced
